US6423731B1, “Indole derivatives as prodrugs of 5-HT1-like receptor agonists” (Zeneca Limited, priority 1994, dated 2002)

What was measured:
[1] = Diffusion through a lipoidal membrane barrier (trans-cellular absorption); format: physicochemical; conditions: laceryl alcohol/caprytic acid lipid membrane
Experimental: The diffusion rates of the Compound of Example 3 and the active compound, 4-[3-[2-dimethylamino)ethyl]-1H-indol-5-ylmethyl]-2-oxazolidinone, through a lipoidal membrane barrier (laceryl alcohol/caprytic acid lipid membrane) were determined and compared.

[2] = Plasma concentrations in rats after intravenous administration; format: in vivo, rat
Experimental: (§1) Investigations were carried out in rats to determine whether 4-[1-Acetyl-3-[2-(dimethylamino)ethyl]indol-5-ylmethyl]oxazolidin-2-one acetate (compound of Example 6) acts as a prodrug for the pharmacologically active compound 4-[3-[2-(dimethylamino)ethyl]-1H-indol-5-ylmethyl]-2-oxazolidinone described in EP-A-0486666. The compound of Example 6 was incubated with rat plasma at a concentration of approx. 0.2 μg/ml for up to 4 h. At selected times the incubations were terminated by addition of acetone and the concentrations of both 4-[1-Acetyl-3-[2-(dimethylamino)ethyl]indol-5-ylmethyl]oxazolidin-2-one acetate and its breakdown product 4-[3-[2-(dimethylamino)ethyl]-1H-indol-5-ylmethyl]-2-oxazolidinone were determined by HPLC assay. In addition rats were administered 4-[1-Acetyl-3-[2-(dimethylamino)ethyl]indol-5-ylmethyl]oxazolidin-2-one acetate intravenously at a dose of 4 mg/kg and the plasma and brain concentrations of this compound and the breakdown product, 4-[3-[2-(Dimethylamino)ethyl]-1H-indol-5-ylmethyl]- 2-oxazolidinone were determined up to 8 h after administration.
After intravenous administration, the peak plasma concentration (Cmax) of 4-[1-acetyl-3-[2-(dimethylamino)ethyl]indol-5-ylmethyl]oxazolidin-2-one acetate was approx 0.2 μg/ml (5 min) and this parent compound was detectable up to 1 h post dose (limit of detection 0.02 μg/ml); the plasma half-life was approximately 0.2 h. The breakdown product, 4-[3-[2-(dimethylamino) ethyl]-1H-indol-5-ylmethyl]-2-oxazolidinone was also detected in the plasma (Cmax 0.3 μg/ml, 5 min) up to 4 h after dosage.

[3] = Incubation with rat hepatocytes (conversion to active compound); format: in vitro ADME
Experimental: The compound of Example 3 was incubated with rat hepalocytes to determine whether the active compound, 4-[3-[2-(dimethylamino)ethyl]-1H-indol-5-ylmethyl]-2-oxazolidinone, is a main product of its metabolism.

[4] = Incubation of compound with rat plasma, HPLC assay of parent and breakdown product; format: in vitro ADME
Experimental: as §1
4-[1-Acetyl-3-[2-(dimethylamino)ethyl]indol-5-ylmethyl]oxazolidin-2-one acetate was converted to 4-[3-[2-(Dimethylamino)ethyl]-1H-indol-5-ylmethyl]-2-oxazolidinone in rat plasma, with a half-life of approximately 3 h. After 4 h incubation only 30% of the parent compound of example 6 remained.

| breakdown product detected in plasma up to, after dosage ([2]; rat, in vivo, iv, 4 mg/kg) | SMILES | Diffusion Rate [1] [cm/min/1000] | melting point [°C] | conversion into the active compound [3] | compound remaining ([3]; after 30 minutes incubation) | half-life at 0.2 μg/ml ([4]; rat plasma incubation, approx. 0.2 μg/ml, up to 4 h, read-out: half-life of conversion to 4-[3-[2-(Dimethylamino)ethyl]-1H-indol-5-ylmethyl]-2-oxazolidinone in rat plasma (converted)) [h] | parent compound remaining ([4]; rat plasma, after 4 h incubation) [%] | half-life ([2]; in vivo, rat, intravenous, 4 mg/kg) [h] | Cmax ([2]; in vivo, rat, intravenous, 4 mg/kg, read-out: peak plasma concentration (Cmax) of parent compound) [ng/mL] | parent compound detectable in plasma up to, post dose ([2]; rat, intravenous, 4 mg/kg, limit of detection 0.02 μg/ml) | conversion into active compound in rats ([2]; rats, plasma incubation and intravenous experiments) |
| --- | --- | --- | --- | --- | --- | --- | --- | --- | --- | --- | --- |
| up to 4 h | CN(C)CCc1c[nH]c2ccc(CC3COC(=O)N3)cc12 (stereo not drawn) [Active compound, 4-[3-[2-(dimethylamino)ethyl]-1H-indol-5-ylmethyl]-2-oxazolidinone, reference compound] | 0.68 |  |  |  |  |  |  |  |  |  |
|  | CC(=O)O.Cc1ccccc1C(=O)n1cc(CCN(C)C)c2cc(CC3COC(=O)N3)ccc21 (stereo not drawn) [Example 3, 4-[1-(2-toluoyl)-3-[2-(dimethylamino)ethyl]indol-5-ylmethyl]oxazolidin-2-one acetate] | 3.88 | 51.5 to 54 | extensively and rapidly converted into the active compound | no compound of Example 3 remained |  |  |  |  |  |  |
|  | CC(=O)O.CC(=O)n1cc(CCN(C)C)c2cc(CC3COC(=O)N3)ccc21 (stereo not drawn) [Example 6, 4-[1-Acetyl-3-[2-(dimethylamino)ethyl]indol-5-ylmethyl]oxazolidin-2-one acetate] |  |  |  |  | ~3 | 30 | ~0.2 | ~200 | up to 1 h | is converted into 4-[3-[2-(dimethylamino)ethyl]-1H-indol-5-ylmethyl]-2-oxazolidinone in rats |
